# Assays:
# Type in all cases: in vivo, human
# [1] = tested on: free thyroxine concentration in the plasma; assay: Evaluation of free thyroxine (T4) secretion promoting effect (plasma free thyroxine, 24-week oral ingestion); conditions: for free thyroxine concentration in the plasma, 0 weeks (before ingestion) / free thyroxine concentration in the plasma, 24 weeks (after ingestion) / free thyroxine concentration in the plasma, Change rate (24 weeks - 0 weeks): High Dose Group (200 mg/daily, oral), mean±SD; for free thyroxine concentration in the plasma, 0 weeks (before ingestion): baseline
# Procedure: In order to confirm a change in the free thyroxine quantity before and after ingestion of the nicotinamide mononucleotide, a test was conducted on healthy males and females aged 50 to 70 years.
# As a sample of Working Example 5, a capsule formulation containing the nicotinamide mononucleotide and starch (200 mg of the nicotinamide mononucleotide in 4 capsules) (manufactured by SHINKOWA PHARMACEUTICAL Co., Ltd.) was used.
# (§1) Each group consisting of five healthy males and females aged 50 to 70 years in an unbiased age group ingested the above high dose capsule formulation once a day by 4 capsules for 24 weeks (total 10 subjects, 200 mg/daily ingestion). In order to conduct appropriate evaluations, those who had been regularly using medical products for chronic diseases, those who had been consuming healthy foods that may affect clinical research, and those who were currently participating in other clinical researches or clinical trials or had participated in other clinical researches or clinical trials within the last three months were excluded from the subject for the evaluation. The capsule formulations were ingested at 10 am (between meals and fasting state) together with water or lukewarm water (oral administration).
# Measurement of the free thyroxine quantity in the plasma was conducted by requesting the measurement to an external public organization according to a usual method. FIGS. 10a to 10c indicate transitions of the free thyroxine concentration (ng/dl) in the plasma for 24 weeks. FIG. 10a represents the transitions of the whole subjects; FIG. 10b represents the transitions of the male subjects; FIG. 10c represents the transitions of the female subjects. Further, FIGS. 11a to 11c indicate change rates (%) of the blood free thyroxine concentration up to 24 weeks when the nicotinamide mononucleotide was orally administered to the subjects for 24 weeks. FIG. 11a represents the change rates of the whole subjects; FIG. 11b represents the change rates of the male subjects; FIG. 11c represents the change rates of the female subjects. Further, Table 5 indicates the numerical values of the free thyroxine concentration (ng/dl) in the plasma before the ingestion of the nicotinamide mononucleotide (0 weeks) and after the ingestion of the nicotinamide mononucleotide (24 weeks). Note that the numerical values represent mean values±standard deviation.
# [2] = tested on: estradiol concentration in the plasma; assay: Evaluation of estradiol secretion promoting effect (plasma estradiol, 24-week oral ingestion); conditions: for estradiol concentration in the plasma, 0 weeks (before ingestion) / estradiol concentration in the plasma, 24 weeks (after ingestion) / estradiol concentration in the plasma, Change rate (24 weeks - 0 weeks): Low Dose Group (100 mg/daily, oral), mean±SD; for estradiol concentration in the plasma, 0 weeks (before ingestion): baseline
# Procedure: In order to confirm a change in the estradiol quantity before and after ingestion of the nicotinamide mononucleotide, a test was conducted on healthy males and females aged 50 to 70 years.
# As a sample of Working Example 7, a capsule formulation containing the nicotinamide mononucleotide and starch (100 mg of the nicotinamide mononucleotide in 4 capsules) (manufactured by SHINKOWA PHARMACEUTICAL Co., Ltd.) was used.
# as §1, with “Each group consisting of five healthy males and females aged 50 to 70 years in an unbiased age group ingested the above high dose capsule formulation once a day by 4 capsules for 24 weeks (total 10 subjects, 200 mg/daily ingestion).” left out
# Measurement of the estradiol quantity in the plasma was conducted by requesting the measurement to an external public organization according to a usual method. FIGS. 14a to 14c indicate transitions of the estradiol concentration (pg/ml) in the plasma for 24 weeks. FIG. 14a represents the transitions of the whole subjects; FIG. 14b represents the transitions of the male subjects; FIG. 14c represents the transitions of the female subjects. Further, FIGS. 15a to 15c indicate change rates (%) of the blood estradiol concentration up to 24 weeks when the nicotinamide mononucleotide was orally administered to the subjects for 24 weeks. FIG. 15a represents the change rates of the whole subjects; FIG. 15b represents the change rates of the male subjects; FIG. 15c represents the change rates of the female subjects. Further, Table 7 indicates the numerical values of the estradiol concentration (pg/ml) in the plasma before the ingestion of the nicotinamide mononucleotide (0 weeks) and after the ingestion of the nicotinamide mononucleotide (24 weeks). Note that the numerical values represent mean values±standard deviation.
# [3] = tested on: adrenocorticotropic hormone concentration in the plasma; assay: Evaluation of adrenocorticotropic hormone secretion promoting effect (plasma ACTH, 24-week oral ingestion); conditions: for adrenocorticotropic hormone concentration in the plasma, 0 weeks (before ingestion) / adrenocorticotropic hormone concentration in the plasma, 24 weeks (after ingestion) / adrenocorticotropic hormone concentration in the plasma, Change rate (24 weeks - 0 weeks): High Dose Group (200 mg/daily, oral), mean±SD; for adrenocorticotropic hormone concentration in the plasma, 0 weeks (before ingestion): baseline
# Procedure: In order to confirm a change in the adrenocorticotropic hormone quantity before and after ingestion of the nicotinamide mononucleotide, a test was conducted on healthy males and females aged 50 to 70 years.
# As a sample of Working Example 10, a capsule formulation containing the nicotinamide mononucleotide and starch (200 mg of the nicotinamide mononucleotide in 4 capsules) (manufactured by SHINKOWA PHARMACEUTICAL Co., Ltd.) was used.
# as §1
# Measurement of the adrenocorticotropic hormone quantity in the plasma was conducted by requesting the measurement to an external public organization according to a usual method. FIGS. 20a to 20c indicate transitions of the adrenocorticotropic hormone concentration (pg/ml) in the plasma for 24 weeks. FIG. 20a represents the transitions of the whole subjects; FIG. 20b represents the transitions of the male subjects; FIG. 20c represents the transitions of the female subjects. Further, FIGS. 21a to 21c indicate change rates (%) of the blood adrenocorticotropic hormone concentration up to 24 weeks when the nicotinamide mononucleotide was orally administered to the subjects for 24 weeks. FIG. 21a represents the change rates of the whole subjects; FIG. 21b represents the change rates of the male subjects; FIG. 21c represents the change rates of the female subjects. Further, Table 10 indicates the numerical values of the adrenocorticotropic hormone concentration (pg/ml) in the plasma before the ingestion of the nicotinamide mononucleotide (0 weeks) and after the ingestion of the nicotinamide mononucleotide (24 weeks). Note that the numerical values represent mean values±standard deviation.
smiles,measurement,setting,value
NC(=O)c1ccc[n+]([C@@H]2O[C@H](COP(=O)([O-])O)[C@@H](O)[C@H]2O)c1 [nicotinamide mononucleotide],"free thyroxine concentration in the plasma, 0 weeks (before ingestion)",[1]; Female,1.10 ± 0.19 ng/dL
same,"free thyroxine concentration in the plasma, 24 weeks (after ingestion)",[1]; Female,1.13 ± 0.09 ng/dL
same,"free thyroxine concentration in the plasma, Change rate (24 weeks - 0 weeks)",[1]; Female,0.03 ± 012 ng/dL
same,"free thyroxine concentration in the plasma, 0 weeks (before ingestion)",[1]; Male,1.15 ± 0.19 ng/dL
same,"free thyroxine concentration in the plasma, 24 weeks (after ingestion)",[1]; Male,1.22 ± 0.17 ng/dL
same,"free thyroxine concentration in the plasma, Change rate (24 weeks - 0 weeks)",[1]; Male,0.07 ± 0.15 ng/dL
same,"free thyroxine concentration in the plasma, 0 weeks (before ingestion)",[1]; Whole Subjects,1.13 ± 0.18 ng/dL
same,"free thyroxine concentration in the plasma, 24 weeks (after ingestion)",[1]; Whole Subjects,1.18 ± 0.14 ng/dL
same,"free thyroxine concentration in the plasma, Change rate (24 weeks - 0 weeks)",[1]; Whole Subjects,0.05 ± 0.13 ng/dL
same,"free thyroxine concentrations in the plasma, effect of ingestion (in words)","[1]; oral, 200 mg/daily, 24 weeks, FIGS. 10a-10c, 11a-11c",increased
same,"estradiol concentration in the plasma, 0 weeks (before ingestion)",[2]; Female,10.0 ± 0.0 pg/mL
same,"estradiol concentration in the plasma, 24 weeks (after ingestion)",[2]; Female,40.8 ± 70.6 pg/mL
same,"estradiol concentration in the plasma, Change rate (24 weeks - 0 weeks)",[2]; Female,30.8 ± 70.6 pg/mL
same,"estradiol concentration in the plasma, 0 weeks (before ingestion)",[2]; Male,24.0 ± 9.4 pg/mL
same,"estradiol concentration in the plasma, 24 weeks (after ingestion)",[2]; Male,24.9 ± 7.7 pg/mL
same,"estradiol concentration in the plasma, Change rate (24 weeks - 0 weeks)",[2]; Male,0.9 ± 5.6 pg/mL
same,"estradiol concentration in the plasma, 0 weeks (before ingestion)",[2]; Whole Subjects,17.0 ± 9.7 pg/mL
same,"estradiol concentration in the plasma, 24 weeks (after ingestion)",[2]; Whole Subjects,32.9 ± 48.1 pg/mL
same,"estradiol concentration in the plasma, Change rate (24 weeks - 0 weeks)",[2]; Whole Subjects,15.9 ± 49.8 pg/mL
same,"estradiol concentrations in the plasma, effect of ingestion (in words)","[2]; oral, 100 mg/daily, 24 weeks, FIGS. 14a-14c, 15a-15c",increased
same,"adrenocorticotropic hormone concentration in the plasma, 0 weeks (before ingestion)",[3]; Female,17.5 ± 7.0 pg/mL
same,"adrenocorticotropic hormone concentration in the plasma, 24 weeks (after ingestion)",[3]; Female,21.9 ± 14.2 pg/mL
same,"adrenocorticotropic hormone concentration in the plasma, Change rate (24 weeks - 0 weeks)",[3]; Female,4.4 ± 15.3 pg/mL
same,"adrenocorticotropic hormone concentration in the plasma, 0 weeks (before ingestion)",[3]; Male,24.4 ± 10.0 pg/mL
same,"adrenocorticotropic hormone concentration in the plasma, 24 weeks (after ingestion)",[3]; Male,35.7 ± 10.2 pg/mL
same,"adrenocorticotropic hormone concentration in the plasma, Change rate (24 weeks - 0 weeks)",[3]; Male,11.3 ± 4.6 pg/mL
same,"adrenocorticotropic hormone concentration in the plasma, 0 weeks (before ingestion)",[3]; Whole Subjects,20.9 ± 8.9 pg/mL
same,"adrenocorticotropic hormone concentration in the plasma, 24 weeks (after ingestion)",[3]; Whole Subjects,28.8 ± 13.7 pg/mL
same,"adrenocorticotropic hormone concentration in the plasma, Change rate (24 weeks - 0 weeks)",[3]; Whole Subjects,7.8 ± 11.2 pg/mL
same,"adrenocorticotropic hormone concentrations in the plasma, effect of ingestion (in words)","[3]; oral, 200 mg/daily, 24 weeks, FIGS. 20a-20c, 21a-21c",increased

# — US20220031596A1, “ANTI-AGING AGENT AND ANTI-AGING METHOD” (priority 2018, published 2022)
